For orientation: IC50 means the concentration needed to halve the response being measured. Higher therefore signals weaker potency in that assay.

The text below walks through data of US20170326125A1, “MULTISUBSTITUTED AROMATIC COMPOUNDS AS INHIBITORS OF THROMBIN” (VERSEON CORPORATION, priority 2016, published 2017).

Molecules are shown by their SMILES. Bounds are passed on as bounds.

This assay concerns the target T1, Human thrombin (Homo sapiens, UniProt P00734).
T1 construct: purchased Haematologic Technologies Inc
Nature of the assay: Inhibition of the protease activity of thrombin (chromogenic substrate S-2238). Format: biochemical. The note with it: inhibition of the protease activity of thrombin; class symbols a/b/c. As for the experimental part:
Compounds described herein can be assayed, by a variety of methods known in the art and described herein, for inhibition of biological activity, e.g., protease activity, of a variety of proteins, e.g., thrombin.
The thrombin activity reported herein (e.g., Table A) was obtained as follows. Human thrombin was obtained from Haematologic Technologies Inc. The chromogenic
Thrombin was assayed in buffer containing 0.05 M Tris (pH 7.4), 0.015 M NaCl and 0.01% PEG-8000. The final concentration of enzyme used was 3 nM thrombin. […] All assays were performed in 96-well microtiter plates at room temperature (RT). […] Inhibitor IC50 values were determined by adding test compound as ten point, three-fold serial dilutions in buffer solution, as known in the art. The plate was read at 10 minutes after substrate addition. The IC50 was calculated by plotting the percent (%) inhibition against compound concentration and fitting the data to a constrained four parameter sigmoidal curve, as known in the art.
In turn, `COc1ccccc1C(=O)n1nc(-c2ccccn2)nc1NCc1cccc2ccccc12` [Cmpd 119, 1-[(2-methoxyphenyl)carbonyl]-N-(naphthalen-1-ylmethyl)-3-(pyridin-2-yl)-1H-1,2,4-triazol-5-amine] had an IC50 greater than 1000 nM. In the case of `COc1ccccc1C(=O)n1nc(-c2ccccn2)nc1NCc1ccc2ccccc2c1` [Cmpd 120, 1-[(2-methoxyphenyl)carbonyl]-N-(naphthalen-2-ylmethyl)-3-(pyridin-2-yl)-1H-1,2,4-triazol-5-amine] it was greater than 1000 nM; in that of `O=C(c1ccc(Cl)cc1)n1nc(-c2ccccn2)nc1NCc1ccc(F)cc1` [Cmpd 121, 1-[(4-chlorophenyl)carbonyl]-N-[(4-fluorophenyl)methyl]-3-(pyridin-2-yl)-1H-1,2,4-triazol-5-amine], less than 100 nM.

The compound `O=C(c1ccc(Cl)cc1)n1nc(-c2ccncc2)nc1NCc1ccc(F)cc1` [Cmpd 122, 1-[(4-chlorophenyl)carbonyl]-N-[(4-fluorophenyl)methyl]-3-(pyridin-4-yl)-1H-1,2,4-triazol-5-amine] returned an IC50 of 100 to 1000 nM. For `COc1ccc(CNc2nc(-c3ccccn3)nn2C(=O)c2ccco2)cc1` [Cmpd 123, 1-[(furan-2-yl)carbonyl]-N-[(4-methoxyphenyl)methyl]-3-(pyridin-2-yl)-1H-1,2,4-triazol-5-amine], the IC50 lay in the range of 100 to 1000 nM. As for `COc1ccc(CNc2nc(-c3ccncc3)nn2C(=O)c2ccco2)cc1` [Cmpd 124, 1-[(furan-2-yl)carbonyl]-N-[(4-methoxyphenyl)methyl]-3-(pyridin-4-yl)-1H-1,2,4-triazol-5-amine], the IC50 is 100 to 1000 nM. In the case of `COc1ccc(CNc2nc(-c3ccccn3)nn2C(=O)c2ccoc2)cc1` [Cmpd 125, 1-[(furan-3-yl)carbonyl]-N-[(4-methoxyphenyl)methyl]-3-(pyridin-2-yl)-1H-1,2,4-triazol-5-amine] it was 100 to 1000 nM; in that of `COc1ccc(CNc2nc(-c3cccnc3)nn2C(=O)c2ccoc2)cc1` [Cmpd 126, 1-[(furan-3-yl)carbonyl]-N-[(4-methoxyphenyl)methyl]-3-(pyridin-3-yl)-1H-1,2,4-triazol-5-amine], 100 to 1000 nM; in that of `COc1ccc(CNc2nc(-c3ccncc3)nn2C(=O)c2ccoc2)cc1` [Cmpd 127, 1-[(furan-3-yl)carbonyl]-N-[(4-methoxyphenyl)methyl]-3-(pyridin-4-yl)-1H-1,2,4-triazol-5-amine], greater than 1000 nM. Regarding `CN(C)C(=O)c1cc(-c2ccccn2)nn1CCc1ccc(F)cc1` [Cmpd 128, 1-[2-(4-fluorophenyl)ethyl]-N,N-dimethyl-3-(pyridin-2-yl)-1H-pyrazole-5-carboxamide], the IC50 was greater than 1000 nM. `CN(C)C(=O)c1cc(-c2ccccn2)n(CCc2ccc(F)cc2)n1` [Cmpd 129, 1-[2-(4-fluorophenyl)ethyl]-N,N-dimethyl-5-(pyridin-2-yl)-1H-pyrazole-3-carboxamide] returned an IC50 greater than 1000 nM. With `CN(C(=O)c1cc(-c2ccccn2)nn1CCc1ccc(F)cc1)c1ccccc1` [Cmpd 130, 1-[2-(4-fluorophenyl)ethyl]-N-methyl-N-phenyl-3-(pyridin-2-yl)-1H-pyrazole-5-carboxamide] the figure was greater than 1000 nM; with `CN(C(=O)c1cc(-c2ccccn2)n(CCc2ccc(F)cc2)n1)c1ccccc1` [Cmpd 131, 1-[2-(4-fluorophenyl)ethyl]-N-methyl-N-phenyl-5-(pyridin-2-yl)-1H-pyrazole-3-carboxamide], greater than 1000 nM; with `CC(C)(C)C(=O)n1nc(-c2ccccc2F)cc1NCc1ccccc1` [Cmpd 133, 1-[5-(benzylamino)-3-(2-fluorophenyl)-1H-pyrazol-1-yl]-2,2-dimethylpropan-1-one], 100 to 1000 nM. In the case of `CC(C)CC(=O)n1nc(-c2ccccc2F)cc1NCc1ccccc1` [Cmpd 134, 1-[5-(benzylamino)-3-(2-fluorophenyl)-1H-pyrazol-1-yl]-3-methylbutan-1-one] it was greater than 1000 nM; in that of `CCC(=O)n1nc(-c2cccc(F)c2)nc1NCc1ccccc1` [Cmpd 135, 1-[5-(benzylamino)-3-(3-fluorophenyl)-1H-1,2,4-triazol-1-yl]propan-1-one], 100 to 1000 nM. With `CC(C)(C)C(=O)n1nc(-c2ccco2)nc1NCc1ccccc1` [Cmpd 136, 1-[5-(benzylamino)-3-(furan-2-yl)-1H-1,2,4-triazol-1-yl]-2,2-dimethylpropan-1-one] the figure was less than 100 nM. As to `CC(C)(C)C(=O)n1nc(-c2ccccn2)nc1NCc1ccccc1` [Cmpd 137, 1-[5-(benzylamino)-3-(pyridin-2-yl)-1H-1,2,4-triazol-1-yl]-2,2-dimethylpropan-1-one], the IC50 was less than 100 nM.

`CC(C)C(=O)n1nc(-c2ccccn2)nc1NCc1ccccc1` [Cmpd 138, 1-[5-(benzylamino)-3-(pyridin-2-yl)-1H-1,2,4-triazol-1-yl]-2-methylpropan-1-one] yielded an IC50 of less than 100 nM.

In the case of `O=C(Cc1ccccc1)n1nc(-c2ccccn2)nc1NCc1ccccc1` [Cmpd 139, 1-[5-(benzylamino)-3-(pyridin-2-yl)-1H-1,2,4-triazol-1-yl]-2-phenylethan-1-one], the IC50 was less than 100 nM.

The compound `CC(C)CC(=O)n1nc(-c2ccccn2)nc1NCc1ccccc1` [Cmpd 140, 1-[5-(benzylamino)-3-(pyridin-2-yl)-1H-1,2,4-triazol-1-yl]-3-methylbutan-1-one] displayed an IC50 of less than 100 nM. Compound `CCCC(=O)n1nc(-c2ccccn2)nc1NCc1ccccc1` [Cmpd 141, 1-[5-(benzylamino)-3-(pyridin-2-yl)-1H-1,2,4-triazol-1-yl]butan-1-one] returned an IC50 of less than 100 nM. In the case of `CC(C)CC(=O)n1nc(-c2ccccn2)cc1NCc1ccccc1` [Cmpd 144, 1-[5-(benzylamino)-3-(pyridin-2-yl)-1H-pyrazol-1-yl]-3-methylbutan-1-one] it was 100 to 1000 nM. Turning to `CC(C)(C)C(=O)n1nc(-c2ccncc2)nc1NCc1ccccc1` [Cmpd 145, 1-[5-(benzylamino)-3-(pyridin-4-yl)-1H-1,2,4-triazol-1-yl]-2,2-dimethylpropan-1-one], the IC50 is less than 100 nM. The compound `CC(C)C(=O)n1nc(-c2ccncc2)nc1NCc1ccccc1` [Cmpd 146, 1-[5-(benzylamino)-3-(pyridin-4-yl)-1H-1,2,4-triazol-1-yl]-2-methylpropan-1-one] yielded an IC50 of less than 100 nM. With `O=C(Cc1ccccc1)n1nc(-c2ccncc2)nc1NCc1ccccc1` [Cmpd 147, 1-[5-(benzylamino)-3-(pyridin-4-yl)-1H-1,2,4-triazol-1-yl]-2-phenylethan-1-one] the figure was less than 100 nM; with `CC(C)CC(=O)n1nc(-c2ccncc2)nc1NCc1ccccc1` [Cmpd 148, 1-[5-(benzylamino)-3-(pyridin-4-yl)-1H-1,2,4-triazol-1-yl]-3-methylbutan-1-one], less than 100 nM; with `O=C(CCc1ccccc1)n1nc(-c2ccncc2)nc1NCc1ccccc1` [Cmpd 149, 1-[5-(benzylamino)-3-(pyridin-4-yl)-1H-1,2,4-triazol-1-yl]-3-phenylpropan-1-one], 100 to 1000 nM. `CCCC(=O)n1nc(-c2ccncc2)nc1NCc1ccccc1` [Cmpd 150, 1-[5-(benzylamino)-3-(pyridin-4-yl)-1H-1,2,4-triazol-1-yl]butan-1-one] came in with an IC50 of less than 100 nM. In the case of `CCC(=O)n1nc(-c2ccncc2)nc1NCc1ccccc1` [Cmpd 151, 1-[5-(benzylamino)-3-(pyridin-4-yl)-1H-1,2,4-triazol-1-yl]propan-1-one] it was less than 100 nM. Turning to `CC(C)(C)C(=O)n1nc(-c2cccs2)nc1NCc1ccccc1` [Cmpd 152, 1-[5-(benzylamino)-3-(thiophen-2-yl)-1H-1,2,4-triazol-1-yl]-2,2-dimethylpropan-1-one], the IC50 was less than 100 nM. Compound `CCC(=O)n1nc(-c2cccnc2)nc1SC` [Cmpd 153, 1-[5-(methylsulfanyl)-3-(pyridin-3-yl)-1H-1,2,4-triazol-1-yl]propan-1-one] gave an IC50 greater than 1000 nM. `CCC(=O)n1nc(-c2cccs2)nc1SC` [Cmpd 154, 1-[5-(methylsulfanyl)-3-(thiophen-2-yl)-1H-1,2,4-triazol-1-yl]propan-1-one] yielded an IC50 greater than 1000 nM. With `CCC(=O)n1nc(-c2cccnc2)nc1N` [Cmpd 155, 1-[5-amino-3-(pyridin-3-yl)-1H-1,2,4-triazol-1-yl]propan-1-one] the figure was greater than 1000 nM; with `COc1ccc(CNc2nc(-c3ccccn3)nn2C(=O)c2ccccc2)cc1` [Cmpd 157, 1-benzoyl-N-[(4-methoxyphenyl)methyl]-3-(pyridin-2-yl)-1H-1,2,4-triazol-5-amine], 100 to 1000 nM. In the case of `COc1ccc(CNc2nc(-c3ccncc3)nn2C(=O)c2ccccc2)cc1` [Cmpd 158, 1-benzoyl-N-[(4-methoxyphenyl)methyl]-3-(pyridin-4-yl)-1H-1,2,4-triazol-5-amine] it was greater than 1000 nM; in that of `O=C(c1ccccc1)n1nc(-c2ccccn2)nc1NCc1ccccc1` [Cmpd 159, 1-benzoyl-N-benzyl-3-(pyridin-2-yl)-1H-1,2,4-triazol-5-amine], less than 100 nM; in that of `O=C(c1ccccc1)n1nc(-c2ccncc2)nc1NCc1ccccc1` [Cmpd 160, 1-benzoyl-N-benzyl-3-(pyridin-4-yl)-1H-1,2,4-triazol-5-amine], less than 100 nM. On to `Fc1ccc(CNc2nc(-c3ccccn3)n(Cc3ccccc3)n2)cc1` [Cmpd 162, 1-benzyl-N-[(4-fluorophenyl)methyl]-5-(pyridin-2-yl)-1H-1,2,4-triazol-3-amine], for which the IC50 was greater than 1000 nM. In the case of `CC(O)c1cc(-c2ccccn2)nn1CCc1ccc(F)cc1` (stereo not shown) [Cmpd 163, 1-1-[2-(4-fluorophenyl)ethyl]-3-(pyridin-2-yl)-1H-pyrazol-5-ylethan-1-ol] it was greater than 1000 nM.
